One data set has as its system rats. The data set is described as follows: Acute toxicity in rats. Particulars: for Effect (died/total): 2 weeks observation. The format is in vivo. The procedure: (§1) The acute toxicity study was conducted when administered compounds SI-86 to rats into the stomach at doses of 3500 and 4000 mg/kg. Each dose was tested in 4 animals. The duration of observation of rats after administration of test compound was 2 weeks.

A further data set can be described thus: Acute toxicity in rats. The format is in vivo. The following applies: rat, in vivo, oral; rats. The protocol: as §1
For data set [1], the system named is rats with intracerebral hemorrhage. The data set is described as follows: Lethality of rats with intracerebral hemorrhage of average severity. The format is in vivo. The procedure:
The chosen model allows to reproduce clinical pattern of […] and is adequate for clinical study of potential neuroprotective agents.
As comparators the following drugs were used: mexydol (“Mexydol” UC Pharmasoft, Russia), 100 mg/kg; citicoline (“Somazina” Ferrer International, SA, Spain), 250 mg/kg; aktovegin (“Aktovegin”, Nycomed, Austria), 16 mg/kg pyracetam (“Pyracetam” Darnitsa, Ukraine), 400 mg/kg. According to the latest clinical guidelines regarding the treatment of patients with CVA approved by the Ministry of Health of Ukraine (Order No. 602 dated 3 Aug. 2012), all these drugs are allowed to be included into schemes for intensive patients therapy with CVA as neuroprotective agents. They were used at recommended doses for preclinical studies (McGrow C. P. Experimental Cerebral Infarction Effects of Pentobarbital in Mongolian Gerbils/C. P. McGrow//Arch. Neurol.-1977.-Vol. 34, No. 6.-P. 334-336). Experimental therapy of acute cerebral ischemia with SI-86 compound and comparator started 1 hour after IUD once a day for 21 days. […] Reference drugs were injected intraperitoneally (ip). Rats of control pathology group were injected by autoblood and as therapy 0.9% NaCI solution was administered calculated for 2 ml/kg iv.
Pseudo-operated rats were exposed to all interventions (anesthesia, craniotomy) excluding autoblood administration that leveled traumatic impact of experimental conditions.
Evaluation of the ability of animals to learn and memorize of aversive stimulus was examined in the test of conditioned response of passive avoidance (CRPA). The technique is based on innate rat instinct to limited shadowy space. The study in rats was conducted in two-compartment unit consisted of two sections—light and dark. An animal was arranged into light compartment, fixing latency time for entering into the dark compartment, wherein rat received current irritation and ran in the light compartment. CRPA retention was tested every other day under latency time change of rat entering into the dark compartment. Also the number of animals was noted not fully entered the dark chamber. Cerebroprotective efficiency criteria of studied compounds were also animal death term (days) and their mortality rate (in %).
Quantitative data were processed using statistical StatPlus 2009 processing. The statistical significance of differences was assessed by Fisher's angular transformation (lethality outcome), also parametric t Student criterion were used in case of normal distribution of variation series, nonparametric W White criterion—in its absence.

The test system of data set [2] is rat heart bioelectrical activity. Kind of data set: Acute asphyxia, duration of heart bioelectrical activity. The format is in vivo, rats. The protocol: Acute asphyxia was modeled in rats anesthetized with propofol (60 mg/kg) intraperitoneally (ip) by complete clamping the trachea at electrocardiogram (EGC) registration. The antihypoxic effect was evaluated by duration of heart bioelectric activity (HBA). This model allows to estimate the heart sensitivity to hypoxia. An isoelectric ECG line for 1 minute considered as HBA termination, the pint of HBA termination corresponded to the last QRS complex on the ECG. The calculation of […] activity was performed by the above formula considering a point of last QRS complex registration as a lifetime.
The preliminary screening of test substances was performed on ANHHH model. All derivatives were administered in the same dose of 10 mg/kg […] (iv) 1 hour prior to pathological state modeling. […] The effectiveness of a leader compound was evaluated at doses 5; 10 and 15 mg/kg iv. Mexydol was chosen as a reference drug having antihypoxic action in combination with antioxidant and membrane protective activity, which is successfully used in patients with CVA and IM. Mexydol was administered intraperitoneally (ip) at a dose of 100 mg/kg according to similar scheme.

The mark [3] stands for this setting: 12 h, SI-86 10 mg/kg iv, mexydol 100, citocoline 250, actovegin 16, pyracetam 400 mg/kg.

Several values for one entry are separate records, joined by “and”; a condition that tells them apart may be missing. Equal entries are not always repeated. Marks after values point to notes of the source that are not given here.

The LD50 is the dose expected to kill half of the subjects tested. The low end stands for greater toxicity, the high end for lower toxicity. Regarding `CSCC[C@@H]1N[C@@]2(C(=O)Nc3ccccc32)[C@@H]2C(=O)N(c3ccc(C)cc3)C(=O)[C@H]12` [SI-86, 5′-(4-Methylphenyl)-3′-[2-(methylthio)ethyl]-3a′,6a′-dihydro-2′H-spiro[indole-3,1′-pyrrolo[3,4-c]pyrrol]-2,4′,6′(1H,3′H,5′H)-trione], the “Effect (died/total)” value with rats (3500 mg/kg single administration) was “all animals survived and 0/4”; in the data set on rats (4000 mg/kg single administration), 1/4. Besides, in the data set with rats (4000 mg/kg), the rats died worked out at 25%. In the data set with rats (rat, in vivo), the “toxicity class according to Hodge and Sterner classification” value is on record as “IV class of toxicity”. This molecule had an LD50 at 2 weeks in the data set “Acute toxicity in rats” of 501 to 5000 mg/kg. Further, the “Lethality, %” value is listed as 0/0% in data set [1] (setting [3]); 5.9% in data set [1] (72 h, same doses); 11.8% in data set [1] (96 h, same doses). The “Lethality, abs.” value in data set [1] (setting [3]) is 0/0%; in data set [1] (24 h, same doses), 0/0%*^#; in data set [1] (48 h, same doses), 0/0%*^#&•$; in data set [1] (72 h, same doses), 2; in data set [1] (96 h, same doses) it was 4. The molecule also registered a cerebroprotective protection in data set [1] (24 h observation, SI-86 10, mexydol 100, citicoline 250 mg/kg) of 100%. Moreover, the Antihypoxic activity result is listed as “+12.1%” in data set [2] (5 mg/kg iv), “+5.8%” in data set [2] (10 mg/kg iv) and −2.8% in data set [2] (15 mg/kg iv). The entries for the “Duration of heart bioelectrical activity” value in data set [2] (5 mg/kg iv), in data set [2] (10 mg/kg iv) and in data set [2] (15 mg/kg iv) were 13.0 ± 1.5 min, 12.3 ± 1.4 min and 11.3 ± 1.0 min, respectively.

The record behind these values is patent publication US20160297828A1, “SPIROCYCLIC COMPOUNDS CONTAINING SPIRO[INDOLYL-3,1'-PYRROLO[3,4-C]PYRROLE] CORE AND SULPHUR-CONTAINING AMINO ACID RESIDUES” (priority 2013, published 2016).
